Assay results reported in patent US12559471B2, “1,5-dihydro-2,4-benzodiazepine-3-one derivative and application thereof” (JIANGSU NHWA PHARMACEUTICAL CO., LTD, priority 2020, dated 2026).

How the values were obtained:
[1] = test system: DOI-induced head shaking behavior of mice; test: DOI-induced head shaking (head thrust) test in mice; type: in vivo; conditions: Mus musculus, intragastric, DOI 1 mg/kg i.p., 0-20 min, read-out: ED50 for inhibiting the DOI-induced head shaking behavior
Protocol: 1. Head Thrust Test in Mice
Mice were stratified according to body weight and then randomly divided into a model control group, a blank control group and drug administration groups. 1 h after the intragastric administration of a vehicle or a drug, the animals were placed in a beaker (with the diameter of 13 cm and the height of 19 cm) paved with fresh padding, and were injected with a modeling drug DOI ((±)-1-(2,5-dimethoxy-4-iodophenyl)-2-aminopropane hydrochloride or (±)-2,5-dimethoxy-4-iodoamphetamine hydrochloride) intraperitoneally at a dose of 1 mg/kg. The head shaking times of the mice during the 0-20 min after the intraperitoneal injection of DOI were recorded. The head shaking behavior is defined as a rapid rotational twitching or wet dog-like shaking of the mouse head, which is distinguished from normal grooming or exploring behavior.

5-HT2C receptor = 5-HT2C receptor (Rattus norvegicus (Rat), UniProt P08909); conditions: read-out: 5-HT2C (Ki value); rat cortex membrane, 3H-Mesulergine
Chain of 5-HT2C receptor (P08909 33-460): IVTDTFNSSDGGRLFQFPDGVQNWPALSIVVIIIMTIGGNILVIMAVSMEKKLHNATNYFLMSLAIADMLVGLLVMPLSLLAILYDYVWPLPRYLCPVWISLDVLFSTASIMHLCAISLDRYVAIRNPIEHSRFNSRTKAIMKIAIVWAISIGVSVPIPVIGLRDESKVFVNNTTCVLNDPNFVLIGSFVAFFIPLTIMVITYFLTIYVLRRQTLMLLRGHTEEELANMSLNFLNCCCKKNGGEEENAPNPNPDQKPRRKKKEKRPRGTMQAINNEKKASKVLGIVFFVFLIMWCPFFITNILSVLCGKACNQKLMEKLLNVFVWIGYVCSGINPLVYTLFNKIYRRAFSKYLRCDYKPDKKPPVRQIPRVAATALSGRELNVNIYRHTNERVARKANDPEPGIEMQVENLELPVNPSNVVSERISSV
Protocol: 2) Preparation of 5-HT2C Membrane
The rat cortex was taken out of a refrigerator at −80° C. and thawed spontaneously. The solution A was added, and the mixture was homogenized for 3-4 s at 4th gear for a total of 4 times and centrifuged at 50000 g for 25 min at 4° C. The supernatant was discarded, and the solution A was added into the precipitate. The mixture was mixed well using a vortex mixer and centrifuged at 50000 g for 25 min at 4° C. (repeated twice). The supernatant was discarded after the centrifugation, and the precipitate was stored at −80° C. for later use.
2) Competitive 5-HT2C Receptor Binding Assay
Step 1: the prepared membrane was suspended in the homogenate B to obtain a 210 mg/mL membrane suspension for later use.
Step 2: 100 μL of the membrane suspension was added into each reaction tube.
Step 3: 100 μL of the solution B was added into a total binding tube (TB), 100 μL of Ketanserin (final concentration: 1.0×10^−5 M) was added into a non-specific binding tube (NB), and 100 μL of test compound was added into each compound binding tube (CB).
Step 4: 10 μL of radioligand ^3H-Mesulergine was added into each reaction tube to reach a final concentration of 3 nM.
Step 5: each reaction tube was incubated at 37° C. for 25 min. After the reaction was completed, the binding ligands were rapidly filtered under reduced pressure, wherein the Whatman test paper GF/C was washed with 0.5% PEI solution 1 h in advance. The filter membrane was fully washed with cold Tris buffer solution, taken out and put into a 4 mL scintillation disc, which was then added with 1 mL toluene scintillation solution and shaken for mixing well.
Step 6: the scintillation disc was put into a liquid scintillation counter for counting.

C57BL/6j mice = test: Investigation of sedation side effects (autonomic activity, movement distance); type: in vivo; conditions: sedation ED50 / PDP efficacy ED50
Protocol: (§1) 1.3 Investigation of Sedation Side Effects (Anti-Sedation Model)
(§2) According to different doses of each group, solutions at different concentrations were separately formulated for intraperitoneal injection, with the final administration volume of 10 mL/kg.
(§3) The movement at 0-20 min was recorded on video, and the movement distance in 20 min was analyzed by Top Scan 3.00 software. The inhibition rate of each group relative to the blank group after the administration were calculated, and the sedation effects of the compounds were comprehensively evaluated in combination with a statistical conclusion.

[2] = as above; type: in vivo, mice; conditions: mouse, in vivo, ip; C57BL/6j mice, intraperitoneal, 45 min after administration
Protocol: as §1, §2, §3

hERG potassium channel = hERG potassium channel (Homo sapiens (Human), UniProt Q12809); test: In vitro hERG assay, whole-cell patch clamp in HEK-293 cells; type: cell-based; conditions: HEK-293 cells stably expressing hERG, room temperature
Chain of hERG potassium channel (Q12809 whole entry): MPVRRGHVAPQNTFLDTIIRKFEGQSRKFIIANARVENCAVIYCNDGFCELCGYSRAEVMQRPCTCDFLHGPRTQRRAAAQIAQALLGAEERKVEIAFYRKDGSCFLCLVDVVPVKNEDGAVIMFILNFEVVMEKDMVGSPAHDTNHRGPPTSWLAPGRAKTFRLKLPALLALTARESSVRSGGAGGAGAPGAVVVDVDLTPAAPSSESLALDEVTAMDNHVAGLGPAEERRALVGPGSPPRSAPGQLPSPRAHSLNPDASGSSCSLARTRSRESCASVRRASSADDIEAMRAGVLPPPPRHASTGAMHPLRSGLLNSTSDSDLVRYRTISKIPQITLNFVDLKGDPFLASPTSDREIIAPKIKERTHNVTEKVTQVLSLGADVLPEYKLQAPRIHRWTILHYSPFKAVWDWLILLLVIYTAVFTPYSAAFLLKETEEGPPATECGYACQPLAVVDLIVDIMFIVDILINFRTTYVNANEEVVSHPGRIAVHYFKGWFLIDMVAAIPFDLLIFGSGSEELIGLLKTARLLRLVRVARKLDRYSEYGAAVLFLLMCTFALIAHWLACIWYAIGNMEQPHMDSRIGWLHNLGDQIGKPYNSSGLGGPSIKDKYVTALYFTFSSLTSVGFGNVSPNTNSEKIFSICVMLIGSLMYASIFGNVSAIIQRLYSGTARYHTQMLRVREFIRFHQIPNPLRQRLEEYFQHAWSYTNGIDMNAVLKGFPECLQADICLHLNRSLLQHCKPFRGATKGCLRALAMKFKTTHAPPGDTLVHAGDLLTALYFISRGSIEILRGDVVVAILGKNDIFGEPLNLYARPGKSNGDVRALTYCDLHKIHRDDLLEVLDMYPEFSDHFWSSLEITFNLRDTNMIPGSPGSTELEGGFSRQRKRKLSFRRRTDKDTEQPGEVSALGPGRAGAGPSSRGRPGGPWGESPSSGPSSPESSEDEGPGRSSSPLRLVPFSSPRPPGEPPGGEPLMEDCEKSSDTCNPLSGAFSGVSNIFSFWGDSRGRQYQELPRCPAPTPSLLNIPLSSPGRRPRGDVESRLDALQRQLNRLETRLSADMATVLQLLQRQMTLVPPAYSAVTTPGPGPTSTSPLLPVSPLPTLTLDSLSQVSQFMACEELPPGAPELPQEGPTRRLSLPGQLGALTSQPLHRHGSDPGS
Protocol: b. […] The working solutions of the test compounds were ultrasonically treated for 20 min.
The cell suspension was gently pipetted to separate the aggregated cells.
Under an inverted microscope, recording electrodes were controlled by a glass electrode micromanipulator (micromanipulation) to contact with the cell. […] After forming the GΩ seal, a rapid capacitance compensation was given.
Negative control and test compounds flowed through the recording chamber in an ascending order of concentration by gravity perfusion to quickly act on the cells. During the recording, the extracellular fluid was continuously circulated by a vacuum pump. […] Each concentration was allowed to act for 5 min or until the current was stabilized. All experiments were performed at room temperature.
[formula] Basic statistics were calculated for each concentration, including mean, standard deviation (SD), standard error (SE), and replicates (n). The dose-dependent curve was fitted with the following equation and the half maximal inhibitory concentration (IC50) of the test compounds was calculated:
Curve fitting and calculation of IC50 were performed by GraphPad Prism 5.0 software. 5. Experimental Results

[3] = test system: MPTP+MK-801-induced Parkinson's disease mouse model; test: MPTP+MK-801-induced Parkinson's disease mouse model (anti-PDP efficacy model); type: in vivo; conditions: ip, mice, intraperitoneal, read-out: PDP efficacy (high activity) ED50
Protocol: 1.1 Effect on MPTP+MK-801-induced Parkinson's disease mouse model (anti-PDP efficacy model)
Animals were injected with different doses of MPTP(1-methyl-4-phenyl-1,2,3,6-tetrahydropyridine) intraperitoneally every morning for 5 consecutive days. […] Then, after an interval of 0.25 h, the mice were placed into an autonomous activity test box (a black polyethylene box with the specification of 29 cm×29 cm×30 cm) for video recording for 20 min. Video analysis was performed after the video recording to evaluate the activity of the mice.

5-HT2A receptor = 5-HT2A receptor (Homo sapiens (Human), UniProt P28223); test: Competitive 5-HT2A receptor binding assay (3H-Ketanserin, CHO-5-HT2A membrane)
Chain of 5-HT2A receptor (P28223 whole entry): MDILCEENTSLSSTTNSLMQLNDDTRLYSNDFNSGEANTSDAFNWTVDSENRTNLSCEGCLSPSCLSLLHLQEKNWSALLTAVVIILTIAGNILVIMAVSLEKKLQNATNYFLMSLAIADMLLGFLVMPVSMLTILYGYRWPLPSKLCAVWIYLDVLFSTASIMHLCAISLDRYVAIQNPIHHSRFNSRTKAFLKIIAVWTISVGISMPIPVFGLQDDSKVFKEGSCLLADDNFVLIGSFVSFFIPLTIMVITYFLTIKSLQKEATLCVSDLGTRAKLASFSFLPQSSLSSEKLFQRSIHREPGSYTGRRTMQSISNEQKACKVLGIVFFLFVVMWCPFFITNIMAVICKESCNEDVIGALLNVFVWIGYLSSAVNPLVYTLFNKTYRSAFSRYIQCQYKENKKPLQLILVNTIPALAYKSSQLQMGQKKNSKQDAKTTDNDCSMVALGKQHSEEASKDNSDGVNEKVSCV
Protocol: 1) Preparation of CHO-5-HT2A Receptor Membrane
The precipitate was collected, and the supernatant was discarded. The solution B was added into the precipitate. […] The supernatant was carefully discarded, and the solution B was added into the precipitate again. […] The precipitate obtained was stored at −80° C.
1) Competitive 5-HT2A Receptor Binding Assay
Step 2: 100 μL of the membrane preparation was added into each reaction tube.
After the filtration, the filter membrane was dried at 60° C. and added into a scintillation disc attached with a bottom membrane, which was then added with 40 μL of scintillation liquid, sealed with a top membrane, and left to stand.

[4] = test system: MPTP+APO-induced climbing behavior in male mice; test: MPTP+APO-induced climbing behavior in male mice (DA motor deterioration model); type: in vivo; conditions: observation in words
Protocol: 1.2 Effect on MPTP+APO-induced climbing behavior in male mice (DA motor deterioration model) Animals were injected with different doses of MPTP intraperitoneally every morning for 5 consecutive days. […] After the subcutaneous injection, animals were immediately placed into a climbing cage (self-made, a cylindrical cage with the diameter of 13 cm and the height of 15 cm, made of a stainless steel wire mesh with the diameter of about 0.1 cm, the bottom of which is a semitransparent polyethylene plate, and the cage cover of which is a stainless steel cage cover), and the behaviors of animals at minutes 10-11, 20-21 and 30-31 after the APO injection was observed and scored.
Scoring criteria: four feet on the floor scored 0; two forepaws on the cage scored 1; and four feet on the cage scored 2.

Compound: CC(C)COc1ccc(CN2Cc3cc(F)ccc3CN(C3CCN(C)CC3)C2=O)cc1 [NH-K-A19001, 7-fluoro-2-(1-methylpiperidin-4-yl)-4-[[4-(2-methylpropoxy)phenyl]methyl]-1,5-dihydro-2,4-benzo diazepine-3-one]
- ED50 [1]: 0.06 mg/kg
- Ki (5-HT2C receptor): 2.4 nM
- Ratio of sedation ED50 to PDP efficacy ED50 (C57BL/6j mice): 11.33
- ED50 at 45 min [2]: 3.74 mg/kg
- IC50 (hERG potassium channel): 260 nM
- ED50 [3]: 0.33 mg/kg
- Ki (5-HT2A receptor; CHO-5-HT2A membrane, 3H-Ketanserin, read-out: 5-HT2A (Ki value)): 0.028 nM
- 2C/2A (5-HT2A receptor; ratio of 5-HT2C Ki to 5-HT2A Ki): 86.327
- motor deterioration (DA mechanism of action) [4]: no motor deterioration is observed
